Data taken from patent US11638706B2, “Methods for treating Huntington's disease” (PTC Therapeutics, Inc., priority 2015, dated 2023).

These compounds were tested on Huntingtin protein (HTT) (assay: Endogenous Huntingtin Protein Assay (MSD electrochemiluminescence ELISA; MW1 or MAB2166 capture, #5656S detection)).
Type: cell-based, human
Protocol: The Endogenous Huntingtin Protein assay used in Example 2 was developed using the Best Pair antibodies identified in Table 2, providing highly sensitive, high-throughput detection assays for polyglutamine-expanded (mHTT) and total human HTT in multiple cell systems. The platform used for the assay is the ELISA-based Meso Scale Discovery (MSD) electrochemiluminescence assay platform.
Meso Scale Discovery (MSD) 96-well or 384-well plates were coated overnight at 4° C. with MW1 (expanded polyglutamine) or MAB2166 monoclonal antibody (for capture) at a concentration of 1 μg/mL in PBS (30 μL per well). Plates were then washed three times with 300 μL wash buffer (0.05% Tween-20 in PBS) and blocked (100 μL blocking buffer; 5% BSA in PBS) for 4-5 hours at room temperature with rotational shaking and then washed three times with wash buffer.
Samples (25 μL) were transferred to the antibody-coated MSD plate and incubated overnight at 4° C. After removal of the lysates, the plate was washed three times with wash buffer, and 25 μL of #5656S (Cell signaling; rabbit monoclonal) secondary antibody (diluted to 0.25 μg/mL in 0.05% Tween-20 in blocking buffer) was added to each well and incubated with shaking for 1 Hour at room temperature. Following incubation with the secondary antibody, the wells were rinsed with wash buffer after which 25 μL of goat anti-rabbit SULFO TAG secondary detection antibody (required aspect of the MSD system) (diluted to 0.25 μg/mL in 0.05% Tween-20 in blocking buffer) was added to each well and incubated with shaking for 1 hour at room temperature. After rinsing three times with wash buffer, 150 μL of read buffer T with surfactant (MSD) were added to each empty well, and the plate was imaged on a SI 6000 imager (MSD) according to manufacturers' instructions provided for 96- or 384-well plates.

Compound | IC50 [µM]
CCN1CC=C(c2ccc(-c3ccc(-c4cn[nH]c4)cc3O)nn2)CC1 [Cpd 425, 2-[6-(1-ethyl-1,2,3,6-tetrahydropyridin-4-yl)pyridazin-3-yl]-5-(1H-pyrazol-4-yl)phenol] | 0.1 to 0.5
CN1CC=C(c2ccc(-c3ccc(-c4cn[nH]c4)cc3O)nn2)CC1 [Cpd 422, 2-[6-(1-methyl-1,2,3,6-tetrahydropyridin-4-yl)pyridazin-3-yl]-5-(1H-pyrazol-4-yl)phenol] | ≤ 0.1
Oc1cc(-c2cn[nH]c2)ccc1-c1ccc(C2=CC3CCC(C2)N3)nn1 (stereo not drawn) [Cpd 429, 2-[6-(8-azabicyclo[3.2.1]oct-2-en-3-yl)pyridazin-3-yl]-5-(1H-pyrazol-4-yl)phenol] | 0.1 to 0.5
CN(c1ccc(-c2ccc(C#N)cc2O)nn1)C1CC(C)(C)NC(C)(C)C1 [Cpd 39, 3-hydroxy-4-(6-(methyl(2,2,6,6-tetramethylpiperidin-4-yl)amino)pyridazin-3-yl)benzonitrile] | 3 to 9
CN(c1ccc(-c2cc3ccccc3cc2O)nn1)C1CC(C)(C)NC(C)(C)C1 [Cpd 26, 3-(6-(methyl(2,2,6,6-tetramethylpiperidin-4-yl)amino)pyridazin-3-yl)naphthalen-2-ol] | 0.1 to 0.5
CN(c1nnc(-c2ccc(-c3cn[nH]c3)c(F)c2F)s1)C1CC(C)(C)NC(C)(C)C1 [Cpd 348] | ≤ 0.1
CN(c1ccc(-c2ccc(-c3cn[nH]c3)cc2Cl)nn1)C1CC(C)(C)NC(C)(C)C1 [Cpd 456, 6-[2-chloro-4-(1H-pyrazol-4-yl)phenyl]-N-methyl-N-(2,2,6,6-tetramethylpiperidin-4-yl)pyridazin-3-amine] | 3 to 9
Cn1cc(-c2ccc(-c3ccc(OC4CC(C)(C)NC(C)(C)C4)nn3)c(O)c2)cn1 [Cpd 414, 5-(1-methyl-1H-pyrazol-4-yl)-2-{6-[(2,2,6,6-tetramethylpiperidin-4-yl)oxy]pyridazin-3-yl}phenol] | ≤ 0.1
Oc1cc(-c2cn[nH]c2)ccc1-c1ccc(N2C[C@H]3CNC[C@H]3C2)nn1 [Cpd 200, 2-(6-((3aR,6aS)-hexahydropyrrolo[3,4-c]pyrrol-2(1H)-yl)pyridazin-3-yl)-5-(1H-pyrazol-4-yl)phenol] | ≤ 0.1
CC1(C)CC(Oc2ccc(-c3nc(-c4cn[nH]c4)ncc3N)nn2)CC(C)(C)N1 [Cpd 457, 2-(1H-pyrazol-4-yl)-4-{6-[(2,2,6,6-tetramethylpiperidin-4-yl)oxy]pyridazin-3-yl}pyrimidin-5-amine] | 3 to 9
COc1nc(-c2cn[nH]c2)ccc1-c1ccc(N(C)C2CC(C)(C)NC(C)(C)C2)nn1 [Cpd 434, 6-[2-methoxy-6-(1H-pyrazol-4-yl)pyridin-3-yl]-N-methyl-N-(2,2,6,6-tetramethylpiperidin-4-yl)pyridazin-3-amine] | 0.5 to 1
CC1(C)CC(Oc2ccc(-c3ccc(-c4ccnc(O)c4)cc3O)nn2)CC(C)(C)N1 [Cpd 176, 4-(3-hydroxy-4-(6-((2,2,6,6-tetramethylpiperidin-4-yl)oxy)pyridazin-3-yl)phenyl)pyridin-2-ol] | ≤ 0.1
CC1(C)CC(Oc2ccc(-c3ccc(-c4cn[nH]c4)cc3C(F)F)nn2)CC(C)(C)N1 [Cpd 464, 3-[2-(difluoromethyl)-4-(1H-pyrazol-4-yl)phenyl]-6-[(2,2,6,6-tetramethylpiperidin-4-yl)oxy]pyridazine] | 3 to 9
CC1(C)CC(Oc2ccc(-c3cc(F)c(-c4cn[nH]c4)cc3F)nn2)CC(C)(C)N1 [Cpd 431, 3-[2,5-difluoro-4-(1H-pyrazol-4-yl)phenyl]-6-[(2,2,6,6-tetramethylpiperidin-4-yl)oxy]pyridazine] | 0.1 to 0.5
CC1(C)CC(Nc2ccc(-c3ccc(-c4cn[nH]c4)cc3O)nn2)CC(C)(C)N1 [Cpd 413, 5-(1H-pyrazol-4-yl)-2-{6-[(2,2,6,6-tetramethylpiperidin-4-yl)amino]pyridazin-3-yl}phenol] | ≤ 0.1
CN(c1ccc(-c2ccc3nn(C)cc3c2)nn1)C1CC(C)(C)NC(C)(C)C1 [Cpd 442, N-methyl-6-(2-methyl-2H-indazol-5-yl)-N-(2,2,6,6-tetramethylpiperidin-4-yl)pyridazin-3-amine] | 3 to 9
5-(5-methyl-1H-pyrazol-4-yl)-2-{6-[(2,2,6,6-tetramethylpiperidin-4-yl)oxy]pyridazin-3-yl}phenol [Cpd 418] | ≤ 0.1
CC1(C)CC(Oc2ccc(-c3ccc(-n4cc(N)cn4)cc3O)nn2)CC(C)(C)N1 [Cpd 421, 5-(4-amino-1H-pyrazol-1-yl)-2-{6-[(2,2,6,6-tetramethylpiperidin-4-yl)oxy]pyridazin-3-yl}phenol] | ≤ 0.1

Compound | IC50 [µM]
CN(c1ccc(-c2cc3cccnc3cc2O)nn1)C1CC(C)(C)NC(C)(C)C1 [Cpd 207, 6-(6-(methyl(2,2,6,6-tetramethylpiperidin-4-yl)amino)pyridazin-3-yl)quinolin-7-ol] | 0.1 to 0.5
CN(c1ccc(-c2ccc(-c3cn[nH]c3)c(F)c2F)nn1)C1CC(C)(C)NC(C)(C)C1 [Cpd 430, 6-[2,3-difluoro-4-(1H-pyrazol-4-yl)phenyl]-N-methyl-N-(2,2,6,6-tetramethylpiperidin-4-yl)pyridazin-3-amine] | 0.1 to 0.5
CC1(C)CC(Oc2ccc(-c3ccc4nccn4c3)nn2)CC(C)(C)N1 [Cpd 446, 6-{6-[(2,2,6,6-tetramethylpiperidin-4-yl)oxy]pyridazin-3-yl}imidazo[1,2-a]pyridine] | 3 to 9
CN(c1ccc(-c2ccc(-c3ccnc(O)c3)cc2O)nn1)C1CC(C)(C)NC(C)(C)C1 [Cpd 170, 4-(3-hydroxy-4-(6-(methyl(2,2,6,6-tetramethylpiperidin-4-yl)amino)pyridazin-3-yl)phenyl)pyridin-2-ol] | ≤ 0.1
CC1(C)CC(Oc2ccc(-c3ccc(-c4cn[nH]c4)cc3O)nn2)CC(C)(C)N1 [Cpd 64, 5-(1H-pyrazol-4-yl)-2-(6-((2,2,6,6-tetramethylpiperidin-4-yl)oxy)pyridazin-3-yl)phenol] | ≤ 0.1
CN(c1ccc(-c2cc3cnccc3cc2O)nn1)C1CC(C)(C)NC(C)(C)C1 [Cpd 212, 7-(6-(methyl(2,2,6,6-tetramethylpiperidin-4-yl)amino)pyridazin-3-yl)isoquinolin-6-ol] | ≤ 0.1
CN(c1ccc(-c2ccc(-c3cn[nH]c3)cc2O)nn1)C1CC(C)(C)NC(C)(C)C1 [Cpd 48, 2-(6-(methyl(2,2,6,6-tetramethylpiperidin-4-yl)amino)pyridazin-3-yl)-5-(1H-pyrazol-4-yl)phenol] | ≤ 0.1
CN(c1nnc(Oc2cccc(-c3cn[nH]c3)c2)s1)C1CC(C)(C)NC(C)(C)C1 [Cpd 462, N,2,2,6,6-pentamethyl-N-{5-[3-(1H-pyrazol-4-yl)phenoxy]-1,3,4-thiadiazol-2-yl}piperidin-4-amine] | 3 to 9
CC1(C)CC(Oc2ccc(-c3ccc(-c4cn[nH]c4)s3)nn2)CC(C)(C)N1 [Cpd 448, 3-[5-(1H-pyrazol-4-yl)thiophen-2-yl]-6-[(2,2,6,6-tetramethylpiperidin-4-yl)oxy]pyridazine] | 3 to 9
Oc1cc(-c2cn[nH]c2)ccc1-c1ccc(OC2CCNCC2)nn1 [Cpd 432, 2-[6-(piperidin-4-yloxy)pyridazin-3-yl]-5-(1H-pyrazol-4-yl)phenol] | 0.1 to 0.5
COc1cc(Cl)ccc1-c1ccc(OC2CC(C)(C)NC(C)(C)C2)nn1 [Cpd 444, 3-(4-chloro-2-methoxyphenyl)-6-[(2,2,6,6-tetramethylpiperidin-4-yl)oxy]pyridazine] | 3 to 9
COc1cc(-n2cc([N+](=O)[O-])cn2)ccc1-c1ccc(N(C)C2CC(C)(C)NC(C)(C)C2)nn1 [Cpd 420, 6-[2-methoxy-4-(4-nitro-1H-pyrazol-1-yl)phenyl]-N-methyl-N-(2,2,6,6-tetramethylpiperidin-4-yl)pyridazin-3-amine] | ≤ 0.1
CC1(C)CC(Oc2ccc(-c3ccc(-n4cccn4)cc3O)nn2)CC(C)(C)N1 [Cpd 63, 5-1H-pyrazol-1-yl-2-(6-(2,2,6,6-tetramethylpiperidin-4-yl-oxy)-pyridazin-3-yl)phenol] | ≤ 0.1
CC1(C)CC(Oc2ccc(-c3ccc(-c4cn[nH]c4)nc3O)nn2)CC(C)(C)N1 [Cpd 461, 6-(1H-pyrazol-4-yl)-3-{6-[(2,2,6,6-tetramethylpiperidin-4-yl)oxy]pyridazin-3-yl}pyridin-2-ol] | 3 to 9
CC1(C)CC(Oc2ccc(-c3cc4ccccc4cc3O)nn2)CC(C)(C)N1 [Cpd 31, 3-(6-((2,2,6,6-tetramethylpiperidin-4-yl)oxy)pyridazin-3-yl)naphthalen-2-ol] | 0.1 to 0.5
CC1(C)CC(Oc2ccc(-c3ccc(-n4ccnc4)cc3O)nn2)CC(C)(C)N1 [Cpd 417, 5-(1H-imidazol-1-yl)-2-{6-[(2,2,6,6-tetramethylpiperidin-4-yl)oxy]pyridazin-3-yl}phenol] | ≤ 0.1
Cn1cc2cc(-c3ccc(OC4CC(C)(C)NC(C)(C)C4)nn3)ccc2n1 [Cpd 443, 2-methyl-5-{6-[(2,2,6,6-tetramethylpiperidin-4-yl)oxy]pyridazin-3-yl}-2H-indazole] | 3 to 9
CN(c1ccc(-c2ccc(-c3cn[nH]c3)cc2F)nn1)C1CC(C)(C)NC(C)(C)C1 [Cpd 452, 6-[2-fluoro-4-(1H-pyrazol-4-yl)phenyl]-N-methyl-N-(2,2,6,6-tetramethylpiperidin-4-yl)pyridazin-3-amine] | 3 to 9
